Measured values reported in the supplement of paper PMC8671470.

Test system: SHI-1
Assay: cell viability (% survival relative to DMSO control, bortezomib = 0%); higher = less cytotoxic
Conditions: 1 nM; 72 h
Method in brief: (§1)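 Fifteen myeloid leukaemia cell lines were exposed to compounds at 1, 10, 100, 1000 or 10000 nM in 384-well plates for 72 h at 37 °C and 5% CO2. Viability was read by CellTiter-Glo luminescence and normalised, with vehicle as 100% and a 10 µM positive control as 0%. Values are percent survival averaged over duplicates.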

| Compound | cell viability |
| --- | --- |
| O=c1c(-c2ccc(O)cc2)coc2cc(O[C@@H]3O[C@H](CO)[C@@H](O)[C@H](O)[C@H]3O)ccc12 [Daidzin] | 93.7% |
| CCN(CC)C(=S)SSC(=S)N(CC)CC [Disulfiram] | 87.7% |
| c1cc(-c2cnn3cc(-c4ccc(OCCN5CCCCC5)cc4)cnc23)ccn1 [Dorsomorphin] | 104% |
| C[C@H]1c2cccc(O)c2C(=O)C2C(=O)[C@]3(O)C(=O)C(C(N)=O)C(=O)[C@@H](N(C)C)[C@@H]3[C@@H](O)[C@@H]21 (some centres undefined) [Doxycycline] | 111% |

Same assay, conditions: 10 nM; 72 h

| Compound | cell viability |
| --- | --- |
| Cc1c(Cl)cccc1S(=O)(=O)Nc1nc(CC(=O)N2CCN(C)CC2)cs1 [BVT-2733] | 101% |
| CCc1oc2ccccc2c1C(=O)c1cc(Br)c(O)c(Br)c1 [Benzbromarone] | 86% |
| CCOC(=O)c1sc(NC(=O)c2ccco2)c(SC#N)c1C [CBR-5884] | 87.1% |
| O=C(/C=C/c1ccc(O)c(O)c1)OCCc1ccccc1 [Caffeic acid phenethyl ester] | 99.5% |
| CCCCCOC(=O)Nc1nc(=O)n([C@@H]2O[C@H](C)[C@@H](O)[C@H]2O)cc1F [Capecitabine] | 99.1% |
| Cc1ccc(-c2cc(C(F)(F)F)nn2-c2ccc(S(N)(=O)=O)cc2)cc1 [Celecoxib] | 104% |
| O=c1c(-c2ccc(O)cc2)coc2cc(O[C@@H]3O[C@H](CO)[C@@H](O)[C@H](O)[C@H]3O)ccc12 [Daidzin] | 106% |
| CCN(CC)C(=S)SSC(=S)N(CC)CC [Disulfiram] | 92.8% |
| c1cc(-c2cnn3cc(-c4ccc(OCCN5CCCCC5)cc4)cnc23)ccn1 [Dorsomorphin] | 102% |
| C[C@H]1c2cccc(O)c2C(=O)C2C(=O)[C@]3(O)C(=O)C(C(N)=O)C(=O)[C@@H](N(C)C)[C@@H]3[C@@H](O)[C@@H]21 (some centres undefined) [Doxycycline] | 98% |

Same assay, conditions: 100 nM; 72 h

| Compound | cell viability |
| --- | --- |
| Cc1c(Cl)cccc1S(=O)(=O)Nc1nc(CC(=O)N2CCN(C)CC2)cs1 [BVT-2733] | 105% |
| CCc1oc2ccccc2c1C(=O)c1cc(Br)c(O)c(Br)c1 [Benzbromarone] | 104% |
| CCOC(=O)c1sc(NC(=O)c2ccco2)c(SC#N)c1C [CBR-5884] | 102% |
| O=C(/C=C/c1ccc(O)c(O)c1)OCCc1ccccc1 [Caffeic acid phenethyl ester] | 103% |
| CCCCCOC(=O)Nc1nc(=O)n([C@@H]2O[C@H](C)[C@@H](O)[C@H]2O)cc1F [Capecitabine] | 97.1% |
| Cc1ccc(-c2cc(C(F)(F)F)nn2-c2ccc(S(N)(=O)=O)cc2)cc1 [Celecoxib] | 95.6% |
| O=c1c(-c2ccc(O)cc2)coc2cc(O[C@@H]3O[C@H](CO)[C@@H](O)[C@H](O)[C@H]3O)ccc12 [Daidzin] | 108% |
| CCN(CC)C(=S)SSC(=S)N(CC)CC [Disulfiram] | 44.8% |
| c1cc(-c2cnn3cc(-c4ccc(OCCN5CCCCC5)cc4)cnc23)ccn1 [Dorsomorphin] | 95.6% |
| C[C@H]1c2cccc(O)c2C(=O)C2C(=O)[C@]3(O)C(=O)C(C(N)=O)C(=O)[C@@H](N(C)C)[C@@H]3[C@@H](O)[C@@H]21 (some centres undefined) [Doxycycline] | 112% |

Same assay, conditions: 1000 nM; 72 h

| Compound | cell viability |
| --- | --- |
| Cc1c(Cl)cccc1S(=O)(=O)Nc1nc(CC(=O)N2CCN(C)CC2)cs1 [BVT-2733] | 111% |
| CCc1oc2ccccc2c1C(=O)c1cc(Br)c(O)c(Br)c1 [Benzbromarone] | 103% |
| CCOC(=O)c1sc(NC(=O)c2ccco2)c(SC#N)c1C [CBR-5884] | 103% |
| O=C(/C=C/c1ccc(O)c(O)c1)OCCc1ccccc1 [Caffeic acid phenethyl ester] | 86.1% |
| CCCCCOC(=O)Nc1nc(=O)n([C@@H]2O[C@H](C)[C@@H](O)[C@H]2O)cc1F [Capecitabine] | 107% |
| Cc1ccc(-c2cc(C(F)(F)F)nn2-c2ccc(S(N)(=O)=O)cc2)cc1 [Celecoxib] | 112% |
| O=c1c(-c2ccc(O)cc2)coc2cc(O[C@@H]3O[C@H](CO)[C@@H](O)[C@H](O)[C@H]3O)ccc12 [Daidzin] | 107% |
| CCN(CC)C(=S)SSC(=S)N(CC)CC [Disulfiram] | -0.354% |
| c1cc(-c2cnn3cc(-c4ccc(OCCN5CCCCC5)cc4)cnc23)ccn1 [Dorsomorphin] | 103% |
| C[C@H]1c2cccc(O)c2C(=O)C2C(=O)[C@]3(O)C(=O)C(C(N)=O)C(=O)[C@@H](N(C)C)[C@@H]3[C@@H](O)[C@@H]21 (some centres undefined) [Doxycycline] | 105% |

Same assay, conditions: 10000 nM; 72 h

| Compound | cell viability |
| --- | --- |
| Cc1c(Cl)cccc1S(=O)(=O)Nc1nc(CC(=O)N2CCN(C)CC2)cs1 [BVT-2733] | 104% |
| CCc1oc2ccccc2c1C(=O)c1cc(Br)c(O)c(Br)c1 [Benzbromarone] | 117% |
| CCOC(=O)c1sc(NC(=O)c2ccco2)c(SC#N)c1C [CBR-5884] | 81.3% |
| O=C(/C=C/c1ccc(O)c(O)c1)OCCc1ccccc1 [Caffeic acid phenethyl ester] | 69% |
| CCCCCOC(=O)Nc1nc(=O)n([C@@H]2O[C@H](C)[C@@H](O)[C@H]2O)cc1F [Capecitabine] | 96.7% |
| Cc1ccc(-c2cc(C(F)(F)F)nn2-c2ccc(S(N)(=O)=O)cc2)cc1 [Celecoxib] | 94.2% |
| O=c1c(-c2ccc(O)cc2)coc2cc(O[C@@H]3O[C@H](CO)[C@@H](O)[C@H](O)[C@H]3O)ccc12 [Daidzin] | 103% |
| CCN(CC)C(=S)SSC(=S)N(CC)CC [Disulfiram] | 65.1% |
| c1cc(-c2cnn3cc(-c4ccc(OCCN5CCCCC5)cc4)cnc23)ccn1 [Dorsomorphin] | 113% |
| C[C@H]1c2cccc(O)c2C(=O)C2C(=O)[C@]3(O)C(=O)C(C(N)=O)C(=O)[C@@H](N(C)C)[C@@H]3[C@@H](O)[C@@H]21 (some centres undefined) [Doxycycline] | 90.8% |

Test system: KU-812
Assay: as above
Conditions: 1 nM; 72 h
Method in brief: as §1

| Compound | cell viability |
| --- | --- |
| Cc1c(Cl)cccc1S(=O)(=O)Nc1nc(CC(=O)N2CCN(C)CC2)cs1 [BVT-2733] | 107% |
| CCc1oc2ccccc2c1C(=O)c1cc(Br)c(O)c(Br)c1 [Benzbromarone] | 100% |
| CCOC(=O)c1sc(NC(=O)c2ccco2)c(SC#N)c1C [CBR-5884] | 93.5% |
| O=C(/C=C/c1ccc(O)c(O)c1)OCCc1ccccc1 [Caffeic acid phenethyl ester] | 96.1% |
| CCCCCOC(=O)Nc1nc(=O)n([C@@H]2O[C@H](C)[C@@H](O)[C@H]2O)cc1F [Capecitabine] | 90.7% |
| Cc1ccc(-c2cc(C(F)(F)F)nn2-c2ccc(S(N)(=O)=O)cc2)cc1 [Celecoxib] | 92.4% |
| O=c1c(-c2ccc(O)cc2)coc2cc(O[C@@H]3O[C@H](CO)[C@@H](O)[C@H](O)[C@H]3O)ccc12 [Daidzin] | 90.9% |
| CCN(CC)C(=S)SSC(=S)N(CC)CC [Disulfiram] | 99.7% |
| c1cc(-c2cnn3cc(-c4ccc(OCCN5CCCCC5)cc4)cnc23)ccn1 [Dorsomorphin] | 91.9% |
| C[C@H]1c2cccc(O)c2C(=O)C2C(=O)[C@]3(O)C(=O)C(C(N)=O)C(=O)[C@@H](N(C)C)[C@@H]3[C@@H](O)[C@@H]21 (some centres undefined) [Doxycycline] | 111% |

Same assay, conditions: 10 nM; 72 h

| Compound | cell viability |
| --- | --- |
| Cc1c(Cl)cccc1S(=O)(=O)Nc1nc(CC(=O)N2CCN(C)CC2)cs1 [BVT-2733] | 95.4% |
| CCc1oc2ccccc2c1C(=O)c1cc(Br)c(O)c(Br)c1 [Benzbromarone] | 95.2% |
| CCOC(=O)c1sc(NC(=O)c2ccco2)c(SC#N)c1C [CBR-5884] | 101% |
| O=C(/C=C/c1ccc(O)c(O)c1)OCCc1ccccc1 [Caffeic acid phenethyl ester] | 93% |
| CCCCCOC(=O)Nc1nc(=O)n([C@@H]2O[C@H](C)[C@@H](O)[C@H]2O)cc1F [Capecitabine] | 93.3% |
